Assay results from US8841422B2, “Human androgen receptor alternative splice variants” (University of Maryland, Baltimore, priority 2008, dated 2014).

How the values were obtained:
[1] = test system: 80 kD ARs; experiment: Western blot with anti-AR after AR shRNAs in CWR-R1 cells; format: cell-based, human; conditions: 48 hr post infection
Description: FIGS. 1A-H: Cloning of novel alternative splice AR isoforms. (A) Presence of the short forms of AR in prostate cancer cells. Total cell lysates of different prostate cancer cells were blotted with anti-AR (441) antibody (upper) and anti-Actin antibody (lower). (B) Selective knockdown of AR long/short forms by AR shRNAs. CWR-R1 cells were infected with the lentivirus encoding AR shRNAa, AR shRNAb, and AR shRNAc (shARa, shARb and shARc) targeting different exons of AR as indicated in (D). At 48 hr post infection, the total cell lysates were subjected to western blot with anti-AR antibody. The same blot was stained with Coomassie Blue to show the protein loading (right panel). (C) Presence of AR isoform transcripts in CWR-R1 cells. Total RNA was isolated from CWR-R1 cells and reverse transcribed. The primer derived from AR shRNAc sequence was used to perform a rapid amplification of cDNA 3′-end (3′-RACE) with the RACE oligo-dT primer or a control primer. (D) Schematic structure of the human AR splice variants. The hatched cassettes stand for the cryptic exons. Solid thick lines represent the transcribed sequences. (E) Expression of AR isoforms in prostate cancer cells. The relative expression levels of AR, AR3, AR4 and AR5 were quantified using real-time PCR with the isoform specific primer pair sets described in Methods (left panel). The AR level in LNCaP cells was arbitrarily set as 1. The expression levels of AR3 in LNCaP and C-8 1 cells were further plotted with a higher resolution. *p<0.05 (right panel). (F) Transcriptional activity of AR isoforms. COS-1 cells were transfected with ARR.2-luciferase reporter gene together with AR, AR3, AR4 and AR5 expression vector. At 24 hr posttransfection, the cells were lysed and the luciferase activity was measured. The data were expressed as relative promoter activity, the changes of luciferase activity relative to the untreated control (arbitrarily set as 1). (G) COS-1 cells were transfected with ARR2-Luciferase reporter along with increasing doses of AR3 or AR expressing vector. […]

[2] = test system: AR; format: cell-based, human; conditions: LNCaP cells
Description: (H) LNCaP cells were infected with (+) or without (−) the lentivirus encoding AR shRNA (shAR) as described previously. At 6 hr postinfection, the cells were transfected with ARR2-Luciferase reporter along with AR3 or the codon-switched wild-type AR expressing vector (ARcs).
Briefly, cells grown in 24-well plates were transiently transfected with different plasmid constructs using LipofectAM1NE 2000 (Invitrogen) for LNCaP cells and FuGENE HI) (Roche) for COS-1 cells following the manufacturer's instruction. […] Dual-Luciferase assays were performed according to the protocol from the manufacturer (Promega).

[3] = test system: 22Rv1 xenograft; experiment: In vivo tumor growth in xenograft model, castrated male nude mice; conditions: 22Rv1 cells infected 48 hr before s.c. injection
Method: (§1) FIGS. 4A-D: AR3 promotes androgen-independent growth of prostate cancer cells. LNCaP cells were infected with lentivirus encoding AR3 expression construct (AR3) or the control vector. After 2-week culture in androgen-depleted condition, the cells were visualized by Coomassie Blue staining (A). At 48 hr post infection, the cells were injected into the castrated SCID mice and the growth of the tumor cells were monitored weekly. The result represent the mean tumor volume±SE (n=5 mice/group), *p<0.05 Inset, Western blots of anti-AR3 and anti-AR of the LNCaP xenograft tumor lysates (B). CWR-R1 and 22Rv1 cells were infected with lentivirus encoding AR3 shRNA-1 (shAR3) or control shRNA (shCon). After 2 weeks culture in androgen-depleted condition, the cells were visualized by Coomassie Blue staining (C). At 48 hr postinfection, the cells were injected into the castrated male nude mice. The growth of the tumors was monitored weekly. The result represents the mean tumor volume±SE (n=5 mice/group), *p<0.05 (D). […]
(§2) In vitro cell growth assay and In vivo tumor growth in xenograft models LNCaP, CWR-R1 and 22Rv1 cells were infected with the lentiviruses bearing the shRNA sequences and the AR3 expression constructs as indicated. […] The volumes of the tumors formed on both sides were measured weekly and calculated by using the formula: 0.5236×r1^2×r2 (r1<r2). […]

[4] = test system: CWR-R1 xenograft; experiment: as above; conditions: CWR-R1 cells infected 48 hr before s.c. injection
Method: as §1, §2

[5] = test system: 22Rv1 cells; experiment: In vitro cell growth assay in androgen-depleted condition; format: cell-based, human; conditions: 22Rv1, 2 weeks culture, Coomassie Blue staining
Method: as §1, §2

[6] = test system: CWR-R1 cells; experiment: as above; format: cell-based, human; conditions: CWR-R1, 2 weeks culture, Coomassie Blue staining
Method: as §1, §2

Row | Molecule | knock-down of 80 kD ARs [1] | activity of endogenous AR or codon-switched wild-type AR (luciferase reporter) [2] | also measured
1 | shARa: shRNA specific for human AR gene, lentiviral pLKO.1-puro vector from Sigma, targeting Exon 8, SEQ ID NO: 10 (CCGGCCTGCTAATCAAGTCACACATCTCGAGATGTGTGACTTGATTAGCAGGTTTTT) | barely affected |  | 
2 | shARb: shRNA specific for human AR gene, lentiviral pLKO.1-puro vector from Sigma, targeting Exon 5, SEQ ID NO: 11 (CCGGCACCAATGTCAACTCCAGGATCTCGAGATCCTGGAGTTGACATTGGTGTTTTT) | barely affected |  | 
3 | shARc: shRNA specific for human AR gene, lentiviral pLKO.1-puro vector from Sigma, targeting the 1st Exon, SEQ ID NO: 12 (CCGGCGCGACTACTACAACTTTCCACTCGAGTGGAAAGTTGTAGTAGTCGCGUTTT) | efficiently knocked down |  | 
4 | CC(O)(CS(=O)(=O)c1ccc(F)cc1)C(=O)Nc1ccc(C#N)c(C(F)(F)F)c1 (stereo not drawn) [casodex] |  | blocked | 
5 | C[C@]12CCC(=O)C[C@@H]1CC[C@@H]1[C@@H]2CC[C@]2(C)[C@@H](O)CC[C@@H]12 [DHT] |  | induced | 
6 | shAR3-1: lentivirus encoded shRNA specific for AR3 isoform, made using SEQ ID NOS: 13 and 14 (nucleic acid) chain 1: TGTAATAGTGGTTACCACTCTTCAAGAGAGAGTGGTAACCACTATTACTTTTTTTTC chain 2: TCGAGAAAAAAAAGTAATAGTGGTTACCACTCTCTCTTGAAGAGTGGTAACCACTATTACA |  |  | tumor growth in castrated nude mice [3]: attenuated their growth; tumor growth in castrated nude mice [4]: attenuated their growth; cell growth in androgen-depleted medium [5]: attenuated their growth; cell growth in androgen-depleted medium [6]: attenuated their growth
